For data set [1], the system named is whole blood clot formation. Briefly: Whole blood rotational thromboelastometry (ROTEM). In kind it is cell-based, human. As to the method:
Whole blood thromboelastometry was used to assess the ability of the FXa^I16L variant to reverse the effects of the direct FXa inhibitors in whole blood. In this system, blood is drawn from healthy volunteers. The first 2 mL of blood were discarded and the subsequent 5 mL of blood was collected into a vacutainer (BID, Franklin Lakes, N.J.). Corn trypsin inhibitor and sodium citrate were in the collection tube, prior to collection of the blood sample, to achieve a final concentration of 0.105 M citrate and 25 μg/mL corn trypsin inhibitor (Haematologic Technologies, Burlington, Vt.) in the blood. Two sets of reactions were analyzed for each donor. The initial reaction initiated 5 minutes post blood collection. The second reaction initiated 1 hour post initiation of first reaction (1 hour 5 minutes after collection).
Blood was analyzed using Thromboelastometry ROTEM® delta (Tem International GmbH, Munich, Germany). For the reaction: (1) 6 μL of vehicle, protein, and/or inhibitor were added to the empty cup, (2) 20 μl of 0.2 M CaCl2 (final concentration 11.6 mM), and (3) 20 μl of Innovin (final concentration in reaction 1:10,000; source of tissue factor) were added to the cup. Whole blood collected as described above was added to the reaction (300 up and recordings were allowed to proceed for approximately 30-60 minutes. The data collected was analyzed using the manufacture's software. (Rotem Gamma Software Version 1.1.1).

The target in the next data set is FXa^I16L (Homo sapiens, UniProt P00742, I235L). Kind of data set: Inhibition of free FXa^I16L peptidyl substrate (SpecXa) hydrolysis by rivaroxaban. In kind it is biochemical. Conditions: free enzyme.
The test system of data set [2] is thrombin generation in normal human plasma. Kind of data set: Thrombin generation assay (TGA) in normal human plasma, Example 2. In kind it is biochemical. The settings on record: 500 nM rivaroxaban versus plasma without rivaroxaban. As to the method: The thrombin generation assay (TGA) was used to assess whether the zymogen-like FXa variants can reverse the effects of direct FXa inhibitors in a more physiologic environment. The TGA measures thrombin production in plasma over time following the initiation of coagulation and was performed as previously described (See Bunce et al., (2011) Blood 117, 290-298, incorporated by reference herein in their entirety). […] Thrombin generation was initiated with 2.0 pM tissue factor/4 uM phospholipid as well as CaCl2 and a thrombin fluorogenic substrate.

Data set [3] relates to clotting time of whole blood. Briefly: ROTEM of whole blood from mice administered rivaroxaban and FXa^I16L in vivo. Set-up: species or system C57BL/6 mice. Conditions: 1 mg/kg rivaroxaban via tail vein, buffer only about 2 min. As for the experimental part:
Mice were then prepared to expose the jugular vein and the vena cava. Approximately 10 mill later FXa^I16L (1 or 2 mg/kg) was infused by direct injection into the jugular vein. Five minutes post injection blood was collected via the vena cava into citrate and corn trypsin inhibitor. Collected blood was then analyzed by ROTEM using dilute tissue factor (Innovin, 1:42,000 dilution).

Data set [4] relates to thrombin generation in normal human plasma. Kind of data set: Thrombin generation assay using calibrated automated thrombography (CAT), Example 4. The class given is biochemical. As to the method: Normal human plasma was obtained from George King Biomedical (Overland Park, Kans.). […] Immediately preceding reaction initiation, 10 μL of vehicle or FXa^I16L was added to plasma at final concentrations ranging from 0.03125 nM to 0.5 nM FXa^I16L, given a 120 μL total reaction volume. Reactions were initiated by addition of 20 μL FluCa buffer containing calcium chloride and fluorogenic substrate. Fluorescence of plasma reactions was read at 37° C. at 20 second intervals on a Fluoroskan Ascent fluorometer and compared to those of reference thrombin calibrator reactions to determine thrombin concentrations. The intensity of the fluorescence signal (FU) was continuously monitored at 37° C. using the CAT. Thrombin generation curves (nM thrombin vs. time) were analyzed to extract lag time, peak height, time to peak, and the area under the curve representing the endogenous thrombin potential (ETP) using the Thromboscope software (Thrombinoscope BV version).

Data set [5] deals with blood loss following a tail cut. The settings on record: mouse, in vivo, 50 mg/kg. As for the experimental part:
Thirty minutes later, mice were anesthetized with isoflurane and placed on a heated platform, and the body temperature of the mice was maintained at 37° C. prior to the tail cut. The tails were immersed in 50 mL pre-warmed phosphate buffered saline (PBS) at 37° C. for 2 minutes. A 3 mm tail cut was made and blood was collected into PBS for a 10 minute period. A quantitative assessment of the amount of bleeding was determined by hemoglobin content of the blood collected into PBS. Tubes were centrifuged to collect erythrocytes, resuspended in 5 mL lysis buffer (8.3 g/L NH4Cl, 1.0 g/L KHCO3, and 0.037 g/L EDTA), and the absorbance of the sample was measured at 575 nm. The absorbance values were converted to total blood loss (μL) using a standard curve.
Mice were then anesthetized with isoflurane and placed on a heated platform, and the body temperature of the mice was maintained at 37° C. prior to the tail cut. The tails were immersed in 50 mLs pre-warmed phosphate buffered saline (PBS) at 37° C. for 2 minutes. A 3 mm tail cut was made and blood was collected into PBS for a 10 minute period and the assessment of the amount of bleeding was determined by hemoglobin content as described.

In data set [6] the test system is clot formation at site of vascular injury. Kind of data set: Laser-induced injury of mouse cremaster muscle, intravital microscopy. The class given is in vivo. The settings on record: 1 mg/kg rivaroxaban. From the text: Using standard techniques, the cremaster muscle of mice was exposed and visualized using intravital microscopy. A vascular injury in the muscle was then induced using a laser. After injury, clot formation was visualized using different fluorescently labeled antibodies that specifically recognize fibrin and platelets. Clotting is indicated by the presence of fluorescent signal from both types of antibodies.

[7] abbreviates: high doses (supratherapeutic concentrations).
[8] abbreviates: low doses (therapeutic concentrations).

Here are results for two compounds from patent publication US10588950B2, “Compositions and methods for counteracting Factor Xa inhibition” (Pfizer Inc., priority 2013, dated 2020).

Structures are written as SMILES.

FXa^I16L, sequence (P00742 41-179): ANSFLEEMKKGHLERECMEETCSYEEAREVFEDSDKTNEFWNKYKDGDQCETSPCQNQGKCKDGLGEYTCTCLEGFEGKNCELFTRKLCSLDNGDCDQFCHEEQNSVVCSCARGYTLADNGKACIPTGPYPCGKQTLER
FXa^I16L, sequence (P00742 235-488 I235L): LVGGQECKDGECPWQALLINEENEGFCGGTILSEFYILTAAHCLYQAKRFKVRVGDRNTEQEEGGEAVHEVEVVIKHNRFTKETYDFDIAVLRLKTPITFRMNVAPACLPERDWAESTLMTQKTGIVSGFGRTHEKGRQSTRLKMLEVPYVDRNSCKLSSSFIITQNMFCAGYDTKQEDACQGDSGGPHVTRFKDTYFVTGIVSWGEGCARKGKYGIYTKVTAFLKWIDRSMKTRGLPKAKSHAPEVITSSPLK

`COc1ccc(-n2nc(C(N)=O)c3c2C(=O)N(c2ccc(N4CCCCC4=O)cc2)CC3)cc1` [apixaban]: the entries for the “whole blood clot formation, inhibitor alone” value in data set [1] (setting [7]) and in data set [1] (setting [8]) were “almost completely eliminated” and “partially eliminated”, respectively.
Take `O=C(NC[C@H]1CN(c2ccc(N3CCOCC3=O)cc2)C(=O)O1)c1ccc(Cl)s1` [rivaroxaban]: the “reduced affinity to FXa^I16L versus wild-type FXa” value on FXa^I16L is roughly 15 fold. In addition, the “thrombin generation profile of plasma” value in data set [2] was “substantially reduced”. For the same compound, the “whole blood clot formation, inhibitor alone” value in data set [1] (setting [7]) is “almost completely eliminated”. For the same compound, the “whole blood clot formation, inhibitor alone” value in data set [1] (setting [8]) is “partially eliminated”. Further, the “clot time of whole blood (ROTEM)” value in data set [3] is given as “Approximately 10 min”. Moreover, in data set [4] (in vitro rivaroxaban treatment 5-200 nM), the “thrombin generation in normal human plasma” value is given as “dose dependent inhibition”. Further, in data set [4] (rivaroxaban alone), the ETP entry is “decrease”, the lag time entry is recorded as “increase” and the peak thrombin result was “decrease”. In data set [5], the “blood loss following the tail transection” value is “increase”. Besides, in data set [6], the “accumulation of platelets at the injury site” value is given as “delayed” and the “signs of fibrin at the injury site” value is “eliminated”.
